Experimental data taken from publication PMC10895697 (JAC-Antimicrobial Resistance, 2024).
≈ marks a conversion by molar mass, not a printed value.

How the values were obtained:
S. aureus = system: S. aureus; design: method as in ref 19 (Abad et al.); settings: concentrations 10x or 100x respective MICs; ref 19 (Abad et al.); cited from earlier work
S. aureus 1333 (MSSA) = assay: MIC/MBC by broth microdilution reference method; assay type: cell-based, Staphylococcus aureus; settings: Staphylococcus aureus, MSSA
S. aureus 1818 (MSSA) = assay: MIC/MBC by broth microdilution reference method; assay type: cell-based, Staphylococcus aureus; settings: Staphylococcus aureus, MSSA
[1] = system: S. aureus ATCC 29213 (MSSA reference strain); assay: MIC/MBC by broth microdilution reference method; assay type: cell-based, Staphylococcus aureus; settings: Staphylococcus aureus
S. aureus 1814 (MRSA) = assay: MIC/MBC by broth microdilution reference method; assay type: cell-based, Staphylococcus aureus; settings: Staphylococcus aureus, MRSA
all S. aureus isolates = assay: MIC/MBC by broth microdilution, summary over all isolates; assay type: cell-based, Staphylococcus aureus; settings: Staphylococcus aureus, read-out: MICs for all S. aureus isolates
S. aureus 1816 (MSSA) = assay: MIC/MBC by broth microdilution reference method; assay type: cell-based, Staphylococcus aureus; settings: Staphylococcus aureus, MSSA
S. aureus 1815 (MRSA) = assay: MIC/MBC by broth microdilution reference method; assay type: cell-based, Staphylococcus aureus; settings: Staphylococcus aureus, MRSA
S. aureus 1817 (MSSA) = assay: MIC/MBC by broth microdilution reference method; assay type: cell-based, Staphylococcus aureus; settings: Staphylococcus aureus, MSSA
S. aureus 1334 (MSSA) = assay: MIC/MBC by broth microdilution reference method; assay type: cell-based, Staphylococcus aureus; settings: Staphylococcus aureus, MSSA

Compound | reduction in intracellular bacteria (S. aureus) | MBC (S. aureus 1333 (MSSA)) [µg/mL] | MIC (S. aureus 1333 (MSSA)) [µg/mL] | MBC (S. aureus 1818 (MSSA)) [µg/mL] | MIC (S. aureus 1818 (MSSA)) [µg/mL] | MBC [1] [µg/mL] | MIC [1] [µg/mL] | MBC (S. aureus 1814 (MRSA)) [µg/mL] | MIC (S. aureus 1814 (MRSA)) [µg/mL] | MIC (all S. aureus isolates) [µg/mL] | MBC (S. aureus 1816 (MSSA)) [µg/mL] | MIC (S. aureus 1816 (MSSA)) [µg/mL] | MBC (S. aureus 1815 (MRSA)) [µg/mL] | MIC (S. aureus 1815 (MRSA)) [µg/mL] | MBC (S. aureus 1817 (MSSA)) [µg/mL] | MIC (S. aureus 1817 (MSSA)) [µg/mL] | MBC (S. aureus 1334 (MSSA)) [µg/mL] | MIC (S. aureus 1334 (MSSA)) [µg/mL]
CO[C@H]1/C=C/O[C@@]2(C)Oc3c(C)c(O)c4c(O)c(c(/C=N/N5CCN(C)CC5)c(O)c4c3C2=O)NC(=O)/C(C)=C\C=C\[C@H](C)[C@H](O)[C@@H](C)[C@@H](O)[C@@H](C)[C@H](OC(C)=O)[C@@H]1C [rifampicin] | approximately 54.0% |  |  |  |  |  |  |  |  |  |  |  |  |  |  |  |  | 
CCCCCCCCCC(=O)N[C@@H](Cc1c[nH]c2ccccc12)C(=O)N[C@H](CC(N)=O)C(=O)N[C@@H](CC(=O)O)C(=O)N[C@@H]1C(=O)NCC(=O)N[C@@H](CCCN)C(=O)N[C@@H](CC(=O)O)C(=O)N[C@H](C)C(=O)N[C@@H](CC(=O)O)C(=O)NCC(=O)N[C@H](CO)C(=O)N[C@@H]([C@H](C)CC(=O)O)C(=O)N[C@@H](CC(=O)c2ccccc2N)C(=O)O[C@@H]1C [DAP, daptomycin] |  | 0.5 (≈ 0.309 µM) | 0.25 (≈ 0.154 µM) | 0.5 (≈ 0.309 µM) | 0.25 (≈ 0.154 µM) | 0.5 (≈ 0.309 µM) | 0.25 (≈ 0.154 µM) | 0.5 (≈ 0.309 µM) | 0.25 (≈ 0.154 µM) | 0.25 (≈ 0.154 µM) | 0.5 (≈ 0.309 µM) | 0.25 (≈ 0.154 µM) | 0.5 (≈ 0.309 µM) | 0.25 (≈ 0.154 µM) | 0.5 (≈ 0.309 µM) | 0.25 (≈ 0.154 µM) | 0.5 (≈ 0.309 µM) | 0.25 (≈ 0.154 µM)
CO[C@H]1/C=C/O[C@@]2(C)Oc3c(C)c(O)c4c(O)c(c(/C=N/N5CCN(C6CCCC6)CC5)c(O)c4c3C2=O)NC(=O)/C(C)=C\C=C\[C@H](C)[C@H](O)[C@@H](C)[C@@H](O)[C@@H](C)[C@H](OC(C)=O)[C@@H]1C [rifapentine] | 45.3% |  |  |  |  |  |  |  |  |  |  |  |  |  |  |  |  | 
